Source: patent US12263171B2, “7-, 8-, and 10-substituted amino triazolo quinazoline derivatives as adenosine receptor antagonists, pharmaceutical compositions and their use” (Merck Sharp & Dohme LLC, priority 2018, dated 2025)

Tests used:
[1] = target: human A2a adenosine receptor (Homo sapiens (Human), UniProt P29274); assay: A2a receptor affinity radioligand binding assay ([3H] SCH58261, membranes from HEK293 or CHO cells); conditions: unstarred values: radioligand binding
Protocol: The A2a receptor affinity binding assay measured the amount of binding of a tritiated ligand with high affinity for the A2a adenosine receptor to membranes made from HEK293 or CHO cells recombinantly expressing the human A2a adenosine receptor, in the presence of varying concentrations of a compound of the invention.
Measurement of A2a Binding Affinity Using Radioligand Binding
148 μL, (5 μg/mL) membranes (Perkin Elmer, Cat. No. RBHA2aM4001A) and 2 μL compounds of the invention to be tested (test compound) were transferred to individual wells of a 96-well polypropylene assay plate and incubated for 15 to 30 minutes at room temperature. [^3H] SCH58261 ((7-(2-phenylethyl)-5-amino-2-(2-furyl)-pyrazolo-[4,3-e]-1,2,4-triazolo[1,5-c]pyrimidine)) was diluted in assay buffer (50 mM Tris pH 7.4, 10 mM MgCl2, 0.005% Tween20) to a concentration of 4 nM and 50 μL transferred to each well of the assay plate. […] The assay plate was incubated at room temperature for 60 minutes with agitation. […] Filtering was achieved by aspirating the contents of the assay plate for 5 seconds, then washing and aspirating the contents three times with ice-cooled wash buffer (50 mM Tris-HCl pH 7.4, 150 mM NaCl) and allowing the vacuum manifold to dry the plate for 30 seconds. The filter plate was incubated for at least 1 hour at 55° C. and allowed to dry. The bottom of the filter plate was sealed with backing tape. 40 μL. […] The plate was incubated for at least 20 minutes, and then the amount of radioactivity remaining in each well was determined using a TopCown® (Perkin Elmer) scintillation counter. After normalization to total and non-specific binding, the percent effect at each compound concentration was calculated. The plot of percent effect versus the log of compound concentration was analyzed electronically using a 4-parameter logistic fit based on the Levenberg-Marquardt algorithm to generate IC50 values.

[2] = target: human A2b adenosine receptor (Homo sapiens (Human), UniProt P29275); assay: A2b radioligand filtration binding assay (tritiated proprietary A2b antagonist, HEK293 membranes); conditions: for IC50: unstarred values: radioligand binding
Protocol: Measurement of A2b Binding Affinity
The reported affinity of the compounds of the invention for the human A2b adenosine receptor was determined experimentally using a radioligand filtration binding assay. This assay measures the amount of binding of a tritiated proprietary A2b receptor antagonist, in the presence and absence of a compound of the invention, to membranes made from HEK293 cells recombinantly expressing the human A2b adenosine receptor (Perkin Elmer, Cat. No. ES-013-C).
The filter plate was incubated for at least 1 hour at 55° C. and allowed to dry. The bottom of the filter plate was then sealed with backing tape. […] The plates were then incubated for at least 20 minutes, and then the amount of radioactivity remaining in each well was determined using a TopCount® (Perkin Elmer) scintillation counter. After normalization to total and non-specific binding, the percent effect at each compound concentration was calculated. The plot of percent effect versus the log of compound concentration was analyzed electronically using a 4-parameter logistic fit based on the Levenberg-Marquardt algorithm to generate IC50 values.

Chain of human A2a adenosine receptor (P29274 whole entry): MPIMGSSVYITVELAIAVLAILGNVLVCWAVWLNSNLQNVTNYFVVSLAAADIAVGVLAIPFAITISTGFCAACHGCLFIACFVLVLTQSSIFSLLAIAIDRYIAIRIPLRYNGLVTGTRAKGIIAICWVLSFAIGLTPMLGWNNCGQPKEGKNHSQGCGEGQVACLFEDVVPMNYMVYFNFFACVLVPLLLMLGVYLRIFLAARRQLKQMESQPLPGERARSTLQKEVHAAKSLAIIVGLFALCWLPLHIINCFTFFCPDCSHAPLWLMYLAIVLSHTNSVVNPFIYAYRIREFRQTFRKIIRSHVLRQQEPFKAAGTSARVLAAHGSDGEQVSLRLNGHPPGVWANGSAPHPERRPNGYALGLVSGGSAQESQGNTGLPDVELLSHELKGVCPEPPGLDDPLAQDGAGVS
Chain of human A2b adenosine receptor (P29275 whole entry): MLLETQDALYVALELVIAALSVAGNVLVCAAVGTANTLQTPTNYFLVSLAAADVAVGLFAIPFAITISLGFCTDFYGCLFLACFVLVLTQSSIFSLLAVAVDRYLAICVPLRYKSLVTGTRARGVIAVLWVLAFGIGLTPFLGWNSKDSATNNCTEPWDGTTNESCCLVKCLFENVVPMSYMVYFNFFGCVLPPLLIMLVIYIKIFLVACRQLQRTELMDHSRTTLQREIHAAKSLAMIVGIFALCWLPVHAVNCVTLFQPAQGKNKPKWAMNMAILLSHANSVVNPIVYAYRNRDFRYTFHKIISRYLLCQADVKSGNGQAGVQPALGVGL

| Structure (SMILES) | IC50 [1] [nM] | IC50 [2] [nM] | A2B binding % inh. @ 10000 nM ([2]; @ 10000 nM, unstarred) [% inh. @ 10000 nM] |
| --- | --- | --- | --- |
| COc1cccc2c1nc(N)n1nc([C@@H]3CCCN(c4cn(CC5(O)CCC5)nc4C)C3)nc21 [Example 32, (R)-1-((4-(3-(5-amino-7-methoxy-[1,2,4]triazolo[1,5-c]quinazolin-2-yl)piperidin-1-yl)-3-methyl-1H-pyrazol-1-yl)methyl)cyclobutan-1-ol] | 1.1 | 0.7 | – |
| C[C@H]1CC[C@@H](c2nc3c4ccc(C#N)cc4nc(N)n3n2)CN1c1cnn(CC(C)(C)O)c1 [Example 202, 5-amino-2-((3R,6S)-1-(1-(2-hydroxy-2-methylpropyl)-1H-pyrazol-4-yl)-6-methylpiperidin-3-yl)-[1,2,4]triazolo[1,5-c]quinazoline-8-carbonitrile] | 4.2 | 211 | – |
| Cc1ccc2c(c1)nc(N)n1nc([C@@H]3CC[C@H](C)N(c4cnn(CC(C)(C)O)c4)C3)nc21 (single isomer, unassigned) [Example 206, 1-(4-((2S, 5R or 2R,5S)-5-5-amino-8-methyl-[1,2,4]triazolo[1,5-c]quinazolin-2-yl)-2-methylpiperidin-1-yl)-1H-pyrazol-1-yl)-2-methylpropan-2-ol] | 0.3 | 20.7 | – |
| COc1cccc2c1nc(N)n1nc([C@@H]3CCCN(c4cnn([C@H]5CCN(C)C5)c4)C3)nc21 [Example 50, 7-methoxy-2-((R)-1-(1-((S)-1-methylpyrrolidin-3-yl)-1H-pyrazol-4-yl)piperidin-3-yl)-[1,2,4]triazolo[1,5-c]quinazolin-5-amine] | 0.9 | 160 | – |
| COc1cccc2c1nc(N)n1nc(C3CCCC(c4cnn(CC(C)(C)O)c4)C3)nc21 (single isomer, unassigned) [Example 138] | 3.4 | 425 | – |
| CCNC(=O)C(C)(C)n1cc(N2CCC[C@@H](c3nc4c5cccc(OC)c5nc(N)n4n3)C2)cn1 [Example 36, (R)-2-(4-(3-(5-amino-7-methoxy-[1,2,4]triazolo[1,5-c]quinazolin-2-yl)piperidin-1-yl)-1H-pyrazol-1-yl)-N-ethyl-2-methylpropanamide] | 1.8 | 1.7 | – |
| COc1cccc2c1nc(N)n1nc([C@@H]3CCCN(c4cn(CC(C)(C)O)nc4C)C3)nc21 [Example 30, (R)-1-(4-(3-(5-amino-7-methoxy-[1,2,4]triazolo[1,5-c]quinazolin-2-yl)piperidin-1-yl)-3-methyl-1H-pyrazol-1-yl)-2-methylpropan-2-ol] | 0.4 | 103 | – |
| COc1cccc2c1nc(N)n1nc([C@@H]3CCCN(c4cn(C5CCOCC5)nc4C(F)F)C3)nc21 [Example 48] | 0.6 | 65.5 | – |
| COc1cccc2c1nc(N)n1nc([C@@H]3CCCN(c4ncn(CC(F)(F)F)n4)C3)nc21 [Example 69, (R)-7-methoxy-2-(1-(1-(2,2,2-trifluoroethyl)-1H-1,2,4-triazol-3-yl)piperidin-3-yl)-[1,2,4]triazolo[1,5-c]quinazolin-5-amine] | 0.6 | 144 | – |

Next, values leading:

| IC50 [1] [nM] | IC50 [2] [nM] | A2B binding % inh. @ 10000 nM ([2]; @ 10000 nM, unstarred) [% inh. @ 10000 nM] | Structure (SMILES) |
| --- | --- | --- | --- |
| 0.3 | 89.3 | – | COc1cccc2c1nc(N)n1nc([C@@H]3CCCN(c4cnn(C5CCOC5)c4)C3)nc21 (single isomer, unassigned) [Example 57B] |
| 0.6 | 16.1 | – | COc1ccc2c(c1)nc(N)n1nc([C@@H]3CC[C@H](C)N(c4cnn([C@H](C)C(C)(C)O)c4)C3)nc21 [Example 211B, (R)-3-(4-((2S,5R)-5-(5-amino-8-methoxy-[1,2,4]triazolo[1,5-c]quinazolin-2-yl)-2-methylpiperidin-1-yl)-1H-pyrazol-1-yl)-2-methylbutan-2-ol] |
| 167 | 2460 | – | COc1cccc2c1nc(N)n1nc([C@H]3CCO[C@@H](c4cnn(C)c4)C3)nc21 [Example 139A] |
| 406 | – | 16 | COc1ccc2c(c1)nc(N)n1nc([C@@H]3CCCN(c4cnn([C@H]5CCC[C@@H]5O)c4)C3)nc21 [Example 187B, (1S,2S)-2-(4-((R)-3-(5-amino-8-methoxy-[1,2,4]triazolo[1,5-c]quinazolin-2-yl)piperidin-1-yl)-1H-pyrazol-1-yl)cyclopentan-1-ol] |
